Patent US7981867B2, “Use of des-aspartate-angiotensin I” (priority 2005, dated 2011)
Read-outs that look alike come from different tables or passages of the source. Marks after values point to notes of the source that are not given here.

Assays:
diabetic KKAy mice = experiment: Oral glucose tolerance test in diabetic KKAy mice, oral treatment; format: in vivo; set-up: Serum glucose level: unit not given here; conditions: for Serum glucose level: oral glucose tolerance test
Method: A dose-range finder experiment to determine the hypoglycaemic dose for orally administered des-aspartate-angiotensin I was also carried out. In this experiment, the animals in each of the three treatment groups of 7 diabetic KKAy mice were orally administered (by gavage) 200, 400, and 600 nmole/kg/day des-aspartate-angiotensin I in volume of 0.1 mL, respectively. Animals in the control group were similarly administered 0.1 mL water. The treatment period was 4 weeks. Oral glucose tolerance test was carried out as described in Example 5, except that blood was sampled at 0 and 30 min.
In this experiment, the animals in each of the three treatment groups of 7 diabetic KKAy mice were orally administered (by gavage) 200, 400, and 600 nmole/kg/day des-aspartate-angiotensin I in volume of 0.1 mL water, respectively. Animals in the control group were similarly administered 0.1 mL water. The treatment period was 4 weeks. Oral glucose tolerance test was carried out as described in EXAMPLE 7, except that blood was sampled at 0 and 30 min.

[1] = system: Influenza A/Aichi/2/68 virus; format: in vivo, BALB/c mice
[2] = oral 1200 nmole/kg given as a single dose on Day 2 (n = 9), post infection day 11

Substance: des-aspartate-angiotensin I (RVYIHPFHL; Angiotensin-1; UniProt P01019 26-34, looked up, fragment) [endogenous angiotensin peptide derived from angiotensin I by a specific aminopeptidase; purchased from Bachem]
- Serum glucose level (diabetic KKAy mice; 200 nmole/kg/day oral (gavage) for 4 weeks, 0 min): 8.9 ± 1.0
- Serum glucose level (diabetic KKAy mice; 200 nmole/kg/day oral (gavage) for 4 weeks, 30 min): 37.7 ± 2.6
- Serum glucose level (diabetic KKAy mice; 400 nmole/kg/day oral (gavage) for 4 weeks, 0 min): 9.1 ± 1.6
- Serum glucose level (diabetic KKAy mice; 400 nmole/kg/day oral (gavage) for 4 weeks, 30 min): 26.0 ± 3.6
- Serum glucose level (diabetic KKAy mice; 600 nmole/kg/day oral (gavage) for 4 weeks, 0 min): 8.9 ± 0.7
- Serum glucose level (diabetic KKAy mice; 600 nmole/kg/day oral (gavage) for 4 weeks, 30 min): 17.5 ± 1.9
- hypoglycaemic action (diabetic KKAy mice; oral dose of 600 nmole/kg/day for 4 weeks, KKAy mice): significant hypoglycaemic action
- Average Percentage Weight Change ([1]; oral 300 nmole/kg/day for 16 days (n = 5), post infection day 0 (taken as 100%)): 100%
- Average Percentage Weight Change ([1]; oral 300 nmole/kg/day for 16 days (n = 5), post infection day 1): 102.1 ± 1.5%
- Average Percentage Weight Change ([1]; oral 300 nmole/kg/day for 16 days (n = 5), post infection day 2): 96.2 ± 2.0%
- Average Percentage Weight Change ([1]; oral 300 nmole/kg/day for 16 days (n = 5), post infection day 3): 90.8 ± 2.4%
- Average Percentage Weight Change ([1]; oral 300 nmole/kg/day for 16 days (n = 5), post infection day 4): 85.8 ± 2.9%
- Average Percentage Weight Change ([1]; oral 300 nmole/kg/day for 16 days (n = 5), post infection day 5): 83.2 ± 3.4%
- number of animals that died on the day of recording ([1]; oral 300 nmole/kg/day for 16 days (n = 5), post infection day 6): 3
- Average Percentage Weight Change ([1]; oral 300 nmole/kg/day for 16 days (n = 5), post infection day 6, two surviving mice, no SEM): 94.1%
- Average Percentage Weight Change ([1]; oral 300 nmole/kg/day for 16 days (n = 5), post infection day 7, two surviving mice, no SEM): 95.7^# %
- Average Percentage Weight Change ([1]; oral 300 nmole/kg/day for 16 days (n = 5), post infection day 8, two surviving mice, no SEM): 97.9^# %
- Average Percentage Weight Change ([1]; oral 300 nmole/kg/day for 16 days (n = 5), post infection day 9, two surviving mice, no SEM): 98.7^# %
- Average Percentage Weight Change ([1]; oral 300 nmole/kg/day for 16 days (n = 5), post infection day 10, two surviving mice, no SEM): 98.1^# %
- Average Percentage Weight Change ([1]; oral 300 nmole/kg/day for 16 days (n = 5), post infection day 11, two surviving mice, no SEM): 97.4^# %
- Average Percentage Weight Change ([1]; oral 300 nmole/kg/day for 16 days (n = 5), post infection day 12, two surviving mice, no SEM): 96.9^# %
- Average Percentage Weight Change ([1]; oral 300 nmole/kg/day for 16 days (n = 5), post infection day 13, two surviving mice, no SEM): 96.8^# %
- Average Percentage Weight Change ([1]; oral 300 nmole/kg/day for 16 days (n = 5), post infection day 14, two surviving mice, no SEM): 98.2^# %
- Average Percentage Weight Change ([1]; oral 300 nmole/kg/day for 16 days (n = 5), post infection day 15, two surviving mice, no SEM): 99.6^# %
- Average Percentage Weight Change ([1]; oral 300 nmole/kg/day for 16 days (n = 5), post infection day 16, two surviving mice, no SEM): 102.4^# %
- antiviral activity (attenuation of weight loss, survival) ([1]; oral 600 nmole/kg administered daily for 8 days): Effective antiviral activity
- Average Percentage Weight Change ([1]; oral 600 nmole/kg/day for 16 days (n = 9), post infection day 0 (taken as 100%)): 100%
- Average Percentage Weight Change ([1]; oral 600 nmole/kg/day for 16 days (n = 9), post infection day 1): 98.7 ± 1.3%
- Average Percentage Weight Change ([1]; oral 600 nmole/kg/day for 16 days (n = 9), post infection day 2): 95.8 ± 1.4%
- Average Percentage Weight Change ([1]; oral 600 nmole/kg/day for 16 days (n = 9), post infection day 3): 92.0 ± 1.7%
- Average Percentage Weight Change ([1]; oral 600 nmole/kg/day for 16 days (n = 9), post infection day 4): 92.4 ± 1.8 %
- Average Percentage Weight Change ([1]; oral 600 nmole/kg/day for 16 days (n = 9), post infection day 5): 94.8 ± 1.8 %
- Average Percentage Weight Change ([1]; oral 600 nmole/kg/day for 16 days (n = 9), post infection day 6): 95.5 ± 2.1 %
- Average Percentage Weight Change ([1]; oral 600 nmole/kg/day for 16 days (n = 9), post infection day 7): 97.8 ± 2.6 %
- Average Percentage Weight Change ([1]; oral 600 nmole/kg/day for 16 days (n = 9), post infection day 8): 96.7 ± 2.9%
- Average Percentage Weight Change ([1]; oral 600 nmole/kg/day for 16 days (n = 9), post infection day 9): 96.3 ± 3.5%
- Average Percentage Weight Change ([1]; oral 600 nmole/kg/day for 16 days (n = 9), post infection day 10): 95.6 ± 4.0%
- Average Percentage Weight Change ([1]; oral 600 nmole/kg/day for 16 days (n = 9), post infection day 11): 95.4 ± 4.5%
- Average Percentage Weight Change ([1]; oral 600 nmole/kg/day for 16 days (n = 9), post infection day 12): 95.1 ± 5.0%
- Average Percentage Weight Change ([1]; oral 600 nmole/kg/day for 16 days (n = 9), post infection day 13): 95.5 ± 5.2%
- Average Percentage Weight Change ([1]; oral 600 nmole/kg/day for 16 days (n = 9), post infection day 14): 99.1 ± 3.4%
- Average Percentage Weight Change ([1]; oral 600 nmole/kg/day for 16 days (n = 9), post infection day 15): 100.3 ± 4.2%
- Average Percentage Weight Change ([1]; oral 600 nmole/kg/day for 16 days (n = 9), post infection day 16): 97.0 ± 4.8%
- Average Percentage Weight Change ([1]; oral 1200 nmole/kg given as a single dose on Day 2 (n = 9), post infection day 0 (taken as 100%)): 100%
- Average Percentage Weight Change ([1]; oral 1200 nmole/kg given as a single dose on Day 2 (n = 9), post infection day 1): 103.5 ± 0.5%
- Average Percentage Weight Change ([1]; oral 1200 nmole/kg given as a single dose on Day 2 (n = 9), post infection day 2): 96.8 ± 0.6%
- Average Percentage Weight Change ([1]; oral 1200 nmole/kg given as a single dose on Day 2 (n = 9), post infection day 3): 95.1 ± 0.8 %
- Average Percentage Weight Change ([1]; oral 1200 nmole/kg given as a single dose on Day 2 (n = 9), post infection day 4): 96.7 ± 1.2 %
- Average Percentage Weight Change ([1]; oral 1200 nmole/kg given as a single dose on Day 2 (n = 9), post infection day 5): 96.3 ± 2.1 %
- Average Percentage Weight Change ([1]; oral 1200 nmole/kg given as a single dose on Day 2 (n = 9), post infection day 6): 95.7 ± 3.1 %
- Average Percentage Weight Change ([1]; oral 1200 nmole/kg given as a single dose on Day 2 (n = 9), post infection day 7): 97.8 ± 4.0 %
- Average Percentage Weight Change ([1]; oral 1200 nmole/kg given as a single dose on Day 2 (n = 9), post infection day 8): 98.3 ± 4.3%
- Average Percentage Weight Change ([1]; oral 1200 nmole/kg given as a single dose on Day 2 (n = 9), post infection day 9): 101.1 ± 4.7%
- Average Percentage Weight Change ([1]; oral 1200 nmole/kg given as a single dose on Day 2 (n = 9), post infection day 10): 101.1 ± 4.8%
- Average Percentage Weight Change [1, 2]: 105.9 ± 1.3%
- number of animals that died on the day of recording [1, 2]: 1
- Average Percentage Weight Change ([1]; oral 1200 nmole/kg given as a single dose on Day 2 (n = 9), post infection day 12): 106.1 ± 1.3%
- Average Percentage Weight Change ([1]; oral 1200 nmole/kg given as a single dose on Day 2 (n = 9), post infection day 13): 108.1 ± 1.2%
- Average Percentage Weight Change ([1]; oral 1200 nmole/kg given as a single dose on Day 2 (n = 9), post infection day 14): 107.2 ± 1.3%
- Average Percentage Weight Change ([1]; oral 1200 nmole/kg given as a single dose on Day 2 (n = 9), post infection day 15): 109.4 ± 1.2%
- Average Percentage Weight Change ([1]; oral 1200 nmole/kg given as a single dose on Day 2 (n = 9), post infection day 16): 108.4 ± 1.5%
- antiviral activity (attenuation of weight loss, survival) ([1]; oral single dose of 1200 nmole/kg given on Day 2): Effective antiviral activity
